Data as given in US12503448B2, “Antibacterial and antiparasitic quinoxaline-2,3-diamine derivatives” (University College Cardiff Consultants Limited, priority 2019, dated 2025).
Converted amounts (≈) assume the structure as drawn. Read-outs that look alike come from different tables or passages of the source.

Columns and labels:
[1] = system: M. smegmatis mc^2 15 ATCC 700084; experiment: In vitro antibacterial activity; assay type: cell-based, Mycobacterium smegmatis; conditions: Mycolicibacterium smegmatis, ATCC700084
[2] = system: Pseudomonas aeruginosa ATCC 27853; experiment: In vitro antibacterial activity; assay type: cell-based; conditions: ATCC27853
MRSA USA 300 = experiment: In vitro antibacterial activity; assay type: cell-based; conditions: Staphylococcus aureus
MRSA ATCC 33591 = experiment: In vitro antibacterial activity; assay type: cell-based; conditions: Staphylococcus aureus
E. coli ATCC 25922 = experiment: In vitro antibacterial activity; assay type: cell-based; conditions: Escherichia coli, ATCC25922
S. aureus ATCC 29213 = experiment: In vitro antibacterial activity; assay type: cell-based; conditions: Staphylococcus aureus, ATCC29213
B. cereus = experiment: In vitro antibacterial activity; assay type: cell-based; conditions: Bacillus cereus
MRSA EM RSA = experiment: In vitro antibacterial activity; assay type: cell-based; conditions: Staphylococcus aureus
Text: In vitro Determination of Antibacterial Activity
Scientific Reports 8 (1), 2018. Bacterial strains of Enterococcus faecalis—ATCC 29212, NCTC 12201, ATCC 51299; Streptococcus pneumoniae—ATCC 49619, 18778, 21394, 21395; Haemophilus influenza—ATCC 49766, 18391, 17428; Staphylococcus aureus—NCTC 12493, ATCC BAA-077, ATCC 700698, 11051; used for testing the compounds, as previously described in “Clinical laboratory testing and in vitro diagnostics test systems—Susceptibility testing of infectious agents and evaluation of performance of antimicrobial susceptibility devices—Part 1: Reference methods for testing the in vitro activity of antimicrobial agentes against bacteria involved in infectious diseases, ISO/FDIS 20776-1:2006(E). All the procedures were carried out in a biosafety containment level 2.

S. mansoni adult worms = experiment: Adult worm drug screen (WHO scoring, WormassayGP2); assay type: cell-based, Schistosoma mansoni; conditions: for Selectivity Index Adult: HepG2 CC50 over adult worm EC50; for EC50: Schistosoma mansoni, adult worms
Summary of the method: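 Adult worms perfused from MF-1 mice 7 weeks after infection with 180 cercariae. Motility after drug exposure scored on the WHO-TDR 0–4 microscopic scale (0 = no movement, 4 = normal), checked by image-based motion analysis. Deposited eggs counted.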

MTT assay on HepG2 cells = assay type: cell-based; conditions: human
Method: MTT Assay on HepG2 Cells Human Hepatocyte Carcinoma (HepG2) cells (85011430, Sigma Aldrich) were used to assess the overt toxicity of these anti-infective compounds. […] A negative control (1% v/v Triton X-100; X100, Sigma-Aldrich) was also included in each screen. After addition of compounds, each plate was then incubated for a further 20 hrs before application of MTT reagent (prepared as described in Nur-[…], Bari A, Ghabbour […], Hoffmann […] Nat Prod. 2017 Jun. 23; 80(6):1900-1908 for the assessment of compound cytotoxicity using the MTT assay. […] The plate was then further incubated for 4 hrs. After incubation, each plate was blotted dry under the laminar flow to remove the MTT treated culture media. A 100 μl DMSO: isopropanol (1:1) solution was then added to each well and the plate was then subsequently incubated for 10 minutes at 37° C. Following incubation, each plate was shaken again and then absorbance measured at 570 nm. The absorbance reading was corrected based on the average value of the wells used as blank (no cells). […] The data obtained in this manner is shown in Table 1 in the columns labelled “HepG2”. […] The selectivity indexes for schistosomula and adult worms are shown in the final two columns in Table 1.

[3] = Metabolic stability in mouse liver microsomes; conditions: for microsomal CLint at 1 μM: liver microsomes; for half-life at 1 μM: microsomes
[4] = Semi thermodynamic solubility; conditions: thermodynamic from solid
[5] = M. smegmatis mc^2 15 ATCC 700084, read-out: MIC90
[6] = Pseudomonas aeruginosa ATCC 27853, read-out: MIC90
[7] = E. coli ATCC 25922, read-out: MIC90
[8] = S. aureus ATCC 29213, read-out: MIC90

Structure (SMILES) | MIC90 [1] | MIC90 ([2]; Pseudomonas aeruginosa) | MIC90 (MRSA USA 300) | MIC90 (MRSA ATCC 33591) | MIC90 (E. coli ATCC 25922) | MIC90 (S. aureus ATCC 29213) | MIC90 (B. cereus) | MIC90 (MRSA EM RSA) | Selectivity Index Adult (S. mansoni adult worms) | EC50 (S. mansoni adult worms) | MIC90 [1, 5] | CC50 at 24 h (MTT assay on HepG2 cells) | MIC90 [2, 6] | microsomal CLint at 1 μM [3] | half-life at 1 μM [3] | MIC90 (E. coli ATCC 25922; [7]) | solubility thermodynamic [4] | MIC90 (S. aureus ATCC 29213; [8]) | MIC90 (B. cereus; B. cereus, read-out: MIC90) | fraction unbound (Plasma protein binding)
O=[N+]([O-])c1ccc2nc(Nc3ccc(F)c(C(F)(F)F)c3)c(Nc3ccc(F)c(C(F)(F)F)c3)nc2c1 [Compound 7, N^2, N^3-bis(4-fluoro-3-(trifluoromethyl)phenyl)-6-nitroquinoxaline-2,3-diamine] | 62.5 µg/mL (≈ 118 µM) | > 125 µg/mL | < 3.91 µg/mL | < 3.91 µg/mL | 62.5 µg/mL (≈ 118 µM) | 1.95 µg/mL (≈ 3.68 µM) | 125 µg/mL (≈ 236 µM) | 7.81 µg/mL (≈ 14.8 µM) | 705 | 11 nM |  |  |  |  |  |  |  |  |  | 
O=[N+]([O-])c1ccc2nc(Nc3ccc(C(F)(F)F)cc3)c(Nc3ccc(C(F)(F)F)cc3)nc2c1 [Compound 11, 6-nitro-N^2, N^3-bis(4-(trifluoromethyl)phenyl)quinoxaline-2,3-diamine] |  |  | < 3.91 µg/mL | < 3.91 µg/mL |  |  |  | 3.91 µg/mL (≈ 7.93 µM) | 2320 | 6.7 nM | 31.2 µg/mL (≈ 63.3 µM) | 15600 nM | > 125 µg/mL | 0.134 µL/min/mg | 172 h | > 125 µg/mL | 32.8 µM (≈ 16.2 µg/mL) | 0.98 µg/mL (≈ 1.99 µM) | < 62.5 µg/mL | 
COc1ccc(Nc2nc3ccc([N+](=O)[O-])cc3nc2Nc2ccc(OC)c(C(F)(F)F)c2)cc1C(F)(F)F [Compound 12, N^2, N^3-bis(4-methoxy-3-(tritluoromethyl)phenyl)-6-nitroquinoxaline-2,3-diamine] |  |  | 15.6 µg/mL (≈ 28.2 µM) | 31.2 µg/mL (≈ 56.5 µM) |  |  |  | 31.2 µg/mL (≈ 56.5 µM) | 664 | 8.5 nM | > 125 µg/mL |  | > 125 µg/mL | 10.8 µL/min/mg | 2.13 h | > 125 µg/mL | 4.09 µM (≈ 2.26 µg/mL) | 62.5 µg/mL (≈ 113 µM) | < 62.5 µg/mL | 0.0134
O=[N+]([O-])c1ccc2nc(Nc3cccc(Cl)c3)c(Nc3cccc(Cl)c3)nc2c1 [Compound 5, N^2, N^3-bis(3-chlorophenyl)-6-nitroquinoxaline-2,3-diamine] | > 125 µg/mL | > 125 µg/mL | 3.91 µg/mL (≈ 9.17 µM) | 3.91 µg/mL (≈ 9.17 µM) | > 125 µg/mL |  | 125 µg/mL (≈ 293 µM) | 3.91 µg/mL (≈ 9.17 µM) | 568 | 12 nM |  |  |  |  |  |  |  | < 3.91 µg/mL |  | 
